Where two headings read alike, the source gives them in different places.
Key:
EMRSA-17 [1] = test: Reversal of Multi-Drug Resistance (MIC/FIC of antibiotics combined with compound 1); type: cell-based, Staphylococcus aureus; conditions: for FIC (s): FIC (a) + FIC (b), antibiotic plus Compound 1; for FIC (b): FIC of Compound 1 in combination with the antibiotic named as label; for MIC: Staphylococcus aureus; for FIC (a): FIC of the antibiotic = MIC in combination with Compound 1 / MIC alone
Protocol: (§1) Assay Protocol: Protocol of Chung et al, (2001), with slight modifications, was followed. 5×10 MDR S. aureus cells were treated with 20 μg/mL of test compounds and incubated for 20 hours. Control cells were not exposed to any test compound and antibiotic. In 96-well plate, increasing concentration of antibiotics, along with the fixed concentration of test compounds were added. Inoculum of 5×10^5 cells was applied to all wells. The presence or absence of growth in all combination wells were noted visually and by using the dye Alamar blue.
(§2) Fractional inhibitory concentrations were calculated by the above cited formulae. • FIC of Antibiotic a (FICa)=MIC of Antibiotic a in combination/MIC of antibiotic a alone • FIC of Compound b (FICb)=MIC of Compound b in combination/MIC of compound b alone
(§3) The sum of Fractional Inhibitory Concentration (FICs) index of: (FICa)+(FICb)=(FICs)

Clinical Isolates [2] = test: as above; type: cell-based, Staphylococcus aureus; conditions: for MIC: Staphylococcus aureus; for FIC (b): FIC of Compound 1 in combination with the antibiotic named as label; for FIC (a): FIC of the antibiotic = MIC in combination with Compound 1 / MIC alone; for FIC (s): FIC (a) + FIC (b), antibiotic plus Compound 1
Protocol: as §1, §2, §3

EMRSA-17 [3] = test: Membrane potential and integrity, DiBAC4(3) flow cytometry; type: cell-based, Staphylococcus aureus; conditions: 20 μg/mL, 20 hrs, flow cytometry FL1
Protocol: (§4) Compound Treatment: 5×10^5 MDR S. aureus cells were treated with 20 μg/mL of test compounds and incubated for 20 hours, while the control cells were incubated without test compound.
(§5) Cell Staining: Staining procedure of Jepras et al. (1997) was adapted with slight modifications. Stock solutions (1 mg/mL) for the membrane potential probe DiBAC4(3) were made in absolute ethanol and stored at −20 ° C. […] Samples (1 mL) of exponentially growing S. aureus were taken from broth cultures. Samples were centrifuged at 11,000 rpm for 2 min and the supernatant was discarded. Cell pellets were resuspended in 4 mL of filtered phosphate-buffered saline (PBS). Fluorogenic substrates DiBAC4(3) were added to the cell suspensions to obtain a final concentration of 10 μg/mL. The suspensions were then incubated at 37° C. for 30 min. Cells were washed by centrifugation in the PBS buffer and then analyzed by flow cytometry.
(§6) Flow cytometry data acquisition: The flow cytometric assay was performed on a Becton Dickinson FACSCaliber™ flow cytometer. A total of 50,000 cells were counted by using Cell Quest software (BD) for data acquisition and analysis. The emission maximum of DiBAC4(3) was at 516 nm and its green fluorescence was detected in the channel FL1 (Veal et al., 2000).

clinical isolate = test: as above; type: cell-based, Staphylococcus aureus; conditions: 20 μg/mL, 20 hrs, flow cytometry FL1
Protocol: as §4, §5, §6

MRSA-252 = test: High throughput screening assay (MABA) against MDR S. aureus; type: cell-based; conditions: Staphylococcus aureus, 20 μg/mL, 20 hours, Alamar Blue
Protocol: (§7) High throughput screening assay (MABA) against MDR S. aureus:
(§8) Inocula Preparation: Isolated colonies of S. aureus were picked and inoculated into Muller Hinton broth and incubated at 37° C. for 20 hours. After 20 hours, the turbidity was checked and adjusted to 0.5 McFarland standards.
(§9) Assay Protocol: Assays were performed according to method reported by Sarkar et al. (2007) with slight modifications. Flat bottom, polystyrene, non-tissue culture treated, sterile 96-well micro titer plates were used with proper labeling. Stock solutions of test compounds 1 and 2 were prepared in DMSO with the concentration of 1 mg/mL. 4 μL from stock solutions were distributed in each well, except the control wells of the plate. Two fold serial dilutions using sterile broth were made with the final volume of […], in each well. The bacterial suspensions (cone 5×10^5) were then added in each wells. The plate was sealed by parafilm and incubated at 37° C. for 20 hours. The plates were prepared in triplicate. Next day, 10% Alamar Blue Dye was added to the culture and kept on shaking incubator at 37° C. for 3 to 4 hours. The color change was then assessed visually, qualitatively and quantitatively by recording absorbance at 570 and 600 nm by a spectrophotometer. The percentage inhibition of compound 1 and 2 against EMRSA-16, and 17, MRSA-252 and clinical isolate by MABA assays are given in Table 1.
(§10) Percentage reduction and inhibition of Alamar blue dye was calculated by using the following formula.
(§11) Here control wells contain only media plus Alamar Blue, while the test wells contains both Alamar Blue with the test compounds.

EMRSA-17 [4] = test: as above; type: cell-based; conditions: Staphylococcus aureus, 20 μg/mL, 20 hours, Alamar Blue
Protocol: as §7, §8, §9, §10, §11

EMRSA-16 = test: as above; type: cell-based; conditions: Staphylococcus aureus, 20 μg/mL, 20 hours, Alamar Blue
Protocol: as §7, §8, §9, §10, §11

Clinical Isolates [5] = test: as above; type: cell-based; conditions: Staphylococcus aureus, 20 μg/mL, 20 hours, Alamar Blue
Protocol: as §7, §8, §9, §10, §11

[6] = test system: MDR Efflux Pumps of EMRSA-17; test: EtBr accumulation/efflux flow cytometry assay; type: cell-based, Staphylococcus aureus; conditions: compound 1 in combination with antibiotics, 3 hrs, FL2
Protocol: (§12) Assay Protocol: Protocol of Kalle et al, (2009) was employed with some modifications. Control cells were not exposed with any test compound or antibiotic. Combination of test compound and antibiotics were incubated for 3 hrs in test cells. Ethiduim bromide (EtBr) was added in to the Eppendorff, containing the combination of both drugs and compound. Cells with the drugs were also incubated and stained with EtBr. Control and treated samples were centrifuged for 3 min at 13,000 rpm. Supernatant was […] and the pallet was washed with PBS. Positive control contains ethidium bromide, while negative control was EtBr free. Flow cytometric analysis was carried out done by using the FL2 channel.
(§13) Flow cytometry data acquisition: The flow cytometric assay was performed. A total of 50,000 cells were counted by using Cell Quest software (BD) for data acquisition and analysis. EtBr was excited at 488 nm and the fluorescence detected through a 585 nm filter (FL-2 channel).

[7] = test system: MDR Efflux Pumps of clinical isolates; test: EtBr accumulation/efflux flow cytometry assay; type: cell-based, Staphylococcus aureus; conditions: compound 1 in combination with antibiotics, 3 hrs, FL2
Protocol: as §12, §13

EMRSA-17 [8] = test: Lucigenin CL assay of Reactive Oxygen Species (O2-) production; type: cell-based, Staphylococcus aureus; conditions: different concentrations, RLU
Protocol: (§14) Assay Protocol: Protocol of Albesa et al (2002) was followed with slight modifications. 5×10^5 Cells were treated with the different concentrations of test compounds. Cells with compounds were incubated with leueigenin and filtered phosphate buffer saline. DMSO was added to the each well at the time of RLU determination to trigger the reaction. […] Positive control contains DMSO, but not the test compound. Determination by chemiluminescence (CL) was performed at room temperature by luminometer. The light emission results were measured in relative light unit (RLU).

Clinical Isolates [9] = test: as above; type: cell-based, Staphylococcus aureus; conditions: different concentrations, RLU
Protocol: as §14

[10] = antibiotic alone, read-out: MIC (a)
[11] = antibiotic in combination with Compound 1
[12] = antibiotic in combination with Compound 1, listed as clindamycin
[13] = Compound 1 alone, read-out: MIC (b)

Row | Compound | FIC (s) (EMRSA-17 [1]) | FIC (b) (EMRSA-17 [1]) | MIC (EMRSA-17 [1]; [10]) [µg/mL] | Effect (EMRSA-17 [1]; [11]) | MIC (a + b) (EMRSA-17 [1]; [11]) [µg/mL] | MIC (Clinical Isolates [2]; [10]) [µg/mL] | Effect (Clinical Isolates [2]; [11]) | MIC (a + b) (Clinical Isolates [2]; [11]) [µg/mL] | MIC (a) (EMRSA-17 [1]; antibiotic alone) [µg/mL] | also measured
1 | [H]/N=C(/N)N[C@H]1[C@H](O)[C@@H](O)[C@H](O[C@@H]2O[C@@H](C)[C@](O)(C=O)[C@H]2O[C@@H]2O[C@@H](CO)[C@H](O)[C@@H](O)[C@@H]2NC)[C@@H](N/C(N)=N\[H])[C@@H]1O [Streptomycin] | 0.647 | 0.64 | 2080 | Partial | 16 | 2050 | Synergistic |  |  | Effect (EMRSA-17 [1]; antibiotic in combination with Compound 1, listed as streptomycin): partial synergistic effect
2 | O=C(N[C@H](CO)[C@H](O)c1ccc([N+](=O)[O-])cc1)C(Cl)Cl [Chloramphenicol] | 0.328 | 0.32 | 1020 | Synergistic | 8 | 1020 | Synergistic | 8 |  | 
3 | Neomycin | 0.336 | 0.32 |  | Synergistic | 8 |  | Synergistic | 8 | 512 | FIC (a) (EMRSA-17 [1]): 0.1562; MIC (a) (EMRSA-17 [1]; antibiotic alone, listed as neomycin): 256 µg/mL; FIC (b) (Clinical Isolates [2]): 0.320; FIC (a) (Clinical Isolates [2]): 0.0078
4 | Cc1cc(NS(=O)(=O)c2ccc(N)cc2)no1 [Sulfamethoxazole] | 0.324 | 0.32 | 2080 | Synergistic | 8 | 2050 | Synergistic |  |  | 
5 | CCC[C@@H]1C[C@@H](C(=O)N[C@@H]([C@H]2O[C@H](SC)[C@H](O)[C@@H](O)[C@H]2O)[C@H](C)Cl)N(C)C1 [Clindamicin] | 0.322 | 0.32 |  | Synergistic | 8 |  | Synergistic | 16 | 4096 | MIC (a) (EMRSA-17 [1]; antibiotic alone, listed as clindamycin): 1024 µg/mL; MIC (a) (Clinical Isolates [2]; antibiotic alone): 4096 µg/mL; Effect (Clinical Isolates [2]; [12]): partial synergistic activity; MIC (a + b) (Clinical Isolates [2]; [12]): 8 µg/mL
6 | Penicillin | 0.164 | 0.16 |  | Synergistic | 4 |  | Synergistic | 8 | 2084 | FIC (a) (EMRSA-17 [1]): 0.0039; FIC (s) (Clinical Isolates [2]): 0.3238; FIC (b) (Clinical Isolates [2]): 0.320; FIC (a) (Clinical Isolates [2]): 0.0038; MIC (a) (Clinical Isolates [2]; antibiotic alone): 2084 µg/mL
7 | Gentamicin | 0.164 | 0.16 |  | Synergistic | 4 |  | Synergistic | 8 | 512 | FIC (a) (EMRSA-17 [1]): 0.0039; FIC (s) (Clinical Isolates [2]): 0.3356; FIC (b) (Clinical Isolates [2]): 0.320; FIC (a) (Clinical Isolates [2]): 0.0156; MIC (a) (Clinical Isolates [2]; antibiotic alone): 512 µg/mL
8 | Cc1onc(-c2ccccc2)c1C(=O)N[C@@H]1C(=O)N2[C@@H]1SC(C)(C)[C@@H]2C(=O)O [Oxacillin] | 0.0809 | 0.08 | 4100 | Synergistic | 2 | 2080 | Synergistic |  |  | 
9 | O=C(O)c1cn(C2CC2)c2cc(N3CCNCC3)c(F)cc2c1=O [Ciprofloxacin] | 0.164 | 0.16 |  | Synergistic | 4 |  |  |  |  | 
10 | CC(C)=CCc1c(O)ccc(C(=O)[C@@H]2C(c3ccc(O)cc3O)CC(C)=C[C@@H]2c2c(O)cc3oc(-c4ccc(O)cc4O)cc(=O)c3c2O)c1O (stereo partly shown) [Compound 1, artonin I] |  |  |  |  |  |  |  |  |  | membrane potential and integrity, DiBAC4(3) fluorescence (EMRSA-17 [3]): majority of population was shifted in a rapid regular pattern due to the change in membrane potential; membrane potential and integrity, DiBAC4(3) fluorescence (clinical isolate): bulky peaks steadily moved towards the area of increasing fluorescence; inhibition at 20 µg/mL (MRSA-252): 69.4%; inhibition at 20 µg/mL (EMRSA-17 [4]): 91.1%; inhibition at 20 µg/mL (EMRSA-16): 88.7%; inhibition at 20 µg/mL (Clinical Isolates [5]): 88.9%; MIC (EMRSA-17 [1]; [13]): 25 µg/mL; MIC (Clinical Isolates [2]; [13]): 25 µg/mL; efflux activity, EtBr accumulation [6]: decrease in the efflux activity was observed; efflux activity, EtBr accumulation [7]: decrease in the efflux activity was observed; production of O2- (ROS), lucigenin chemiluminescence (EMRSA-17 [8]): more production of O2^− was observed; production of O2- (ROS), lucigenin chemiluminescence (Clinical Isolates [9]): more production of O2^− was observed
11 | CC[C@H]1OC(=O)[C@H](C)[C@@H](O[C@H]2C[C@@](C)(OC)[C@@H](O)[C@H](C)O2)[C@H](C)[C@@H](O[C@@H]2O[C@H](C)C[C@H](N(C)C)[C@H]2O)[C@](C)(O)C[C@@H](C)C(=O)[C@H](C)[C@@H](O)[C@]1(C)O [Erythromycin] | 0.324 | 0.32 | 1020 | Synergistic | 8 | 2050 | Synergistic | 8 |  | 
12 | NCC[C@H](O)C(=O)N[C@@H]1C[C@H](N)[C@@H](O[C@H]2O[C@H](CN)[C@@H](O)[C@H](O)[C@H]2O)[C@H](O)[C@H]1O[C@H]1O[C@H](CO)[C@@H](O)[C@H](N)[C@H]1O [Amikacin] | 0.351 | 0.32 |  | Synergistic | 8 | 128 | Partial |  |  | 

From patent US8889733B2, “Artonin I to treat resistant infectious Staphylococcus aureus” (priority 2013, dated 2014)
